ChEMBL document CHEMBL1201862, “PubChem BioAssay data set” (2004)
The source made the active and inactive calls.

Columns and labels:
[1] = target: fMet-Leu-Phe receptor (Homo sapiens, UniProt P21462); experiment: formyl peptide receptor binders – dose response (AID 519); type: functional
[2] = target: Cytochrome P450 2D6 (Homo sapiens, UniProt P10635);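 note: CYP2D6 member of a cytochrome P450 panel assay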
[3] = target: Cytochrome P450 3A4 (Homo sapiens, UniProt P08684);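 note: CYP3A4 tested as one member of a cytochrome P450 panel screen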
[4] = target: T1, Voltage-gated N-type calcium channel alpha-1B subunit/Amyloid beta A4 precursor protein-binding family A member 1 (Homo sapiens, UniProt Q00975+Q02410); type: protein assay
[5] = target: T1, Voltage-gated N-type calcium channel alpha-1B subunit/Amyloid beta A4 precursor protein-binding family A member 1; type: protein assay; remark: listed apart in the source
[6] = target: Beta-lactamase (Pseudomonas aeruginosa, UniProt Q79MP6);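 note: biochemical dose-response test of metallo-beta-lactamase enzyme inhibition, read out by epi-absorbance; purified recombinant IMP-1 metallo-beta-lactamase with nitrocefin as substrate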
[7] = target: Beta-lactamase (Salmonella choleraesuis (strain SC-B67), UniProt Q5J463)
[8] = target: T2, ORF 73 (Human herpesvirus 8, UniProt O40947); experiment: KSHV LANA DNA-binding disruption – biochemical, fluorescence polarization, cherry-picked samples, dose response (AID 504725); design: species or system Human gammaherpesvirus 8;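 note: fluorescence polarization of a labeled DNA duplex reporting LANA DNA binding; potency is for inhibitors that block LANA binding to the DNA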
T2 sequence (O40947 whole entry): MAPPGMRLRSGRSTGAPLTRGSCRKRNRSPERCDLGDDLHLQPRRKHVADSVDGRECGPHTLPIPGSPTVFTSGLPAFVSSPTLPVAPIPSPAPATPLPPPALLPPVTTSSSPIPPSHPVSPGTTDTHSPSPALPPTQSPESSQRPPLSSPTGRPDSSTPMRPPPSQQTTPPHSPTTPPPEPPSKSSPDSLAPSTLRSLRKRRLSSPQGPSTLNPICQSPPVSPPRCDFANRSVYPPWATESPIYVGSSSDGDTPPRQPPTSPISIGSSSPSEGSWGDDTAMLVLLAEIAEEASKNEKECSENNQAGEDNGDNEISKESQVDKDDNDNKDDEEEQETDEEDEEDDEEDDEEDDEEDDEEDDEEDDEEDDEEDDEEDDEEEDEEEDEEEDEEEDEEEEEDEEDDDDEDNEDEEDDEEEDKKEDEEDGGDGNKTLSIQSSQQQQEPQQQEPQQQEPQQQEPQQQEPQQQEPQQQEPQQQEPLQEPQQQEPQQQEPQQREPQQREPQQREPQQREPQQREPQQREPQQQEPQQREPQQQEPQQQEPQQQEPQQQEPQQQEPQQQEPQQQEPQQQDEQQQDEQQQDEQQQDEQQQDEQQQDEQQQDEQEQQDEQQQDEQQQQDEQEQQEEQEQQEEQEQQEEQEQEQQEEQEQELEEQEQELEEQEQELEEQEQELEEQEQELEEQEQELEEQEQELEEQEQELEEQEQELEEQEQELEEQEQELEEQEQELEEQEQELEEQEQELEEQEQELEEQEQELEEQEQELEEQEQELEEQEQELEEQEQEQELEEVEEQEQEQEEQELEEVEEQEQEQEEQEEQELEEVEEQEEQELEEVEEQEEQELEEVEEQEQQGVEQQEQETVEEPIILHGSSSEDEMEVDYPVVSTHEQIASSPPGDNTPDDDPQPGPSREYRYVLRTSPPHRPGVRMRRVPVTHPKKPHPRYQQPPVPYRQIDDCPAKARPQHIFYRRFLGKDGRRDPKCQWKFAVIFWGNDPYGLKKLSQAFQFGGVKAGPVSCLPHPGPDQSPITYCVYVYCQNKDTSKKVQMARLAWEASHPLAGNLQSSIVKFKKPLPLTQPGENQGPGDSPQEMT

[9] = target: UDP-galactopyranose mutase (Mycobacterium tuberculosis, UniProt P9WIQ1); experiment: Inhibitors of Mycobacterium tuberculosis UDP-galactopyranose mutase (UGM) enzyme Measured in Biochemical System Using Plate Reader - 2105-02_Inhibitor_Dose_CherryPick_Activity. [Related pubchem assays (depositor defined):AID504439]
[10] = target: Keap1/Nrf2 (Homo sapiens, UniProt Q14145); experiment: disruptors of Keap1 binding to Nrf2 peptide – biochemical, fluorescence polarization, cherry-picked samples, dose response (AID 588683)
[11] = target: Cytochrome P450 2C19 (Homo sapiens, UniProt P33261); experiment: Cytochrome panel assay with activity outcomes. Panel member name: p450-cyp2c19 Compounds with AC50 equal or less than 10 uM are considered active; type: functional; conditions: read-out: AC50
[12] = target: Cytochrome P450 2C9 (Homo sapiens, UniProt P11712)
[13] = target: T3, Cytochrome P450 1A2 (Homo sapiens, UniProt P05177);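 note: PubChem cytochrome P450 panel assay, CYP1A2 panel member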
T3 sequence (P05177 whole entry): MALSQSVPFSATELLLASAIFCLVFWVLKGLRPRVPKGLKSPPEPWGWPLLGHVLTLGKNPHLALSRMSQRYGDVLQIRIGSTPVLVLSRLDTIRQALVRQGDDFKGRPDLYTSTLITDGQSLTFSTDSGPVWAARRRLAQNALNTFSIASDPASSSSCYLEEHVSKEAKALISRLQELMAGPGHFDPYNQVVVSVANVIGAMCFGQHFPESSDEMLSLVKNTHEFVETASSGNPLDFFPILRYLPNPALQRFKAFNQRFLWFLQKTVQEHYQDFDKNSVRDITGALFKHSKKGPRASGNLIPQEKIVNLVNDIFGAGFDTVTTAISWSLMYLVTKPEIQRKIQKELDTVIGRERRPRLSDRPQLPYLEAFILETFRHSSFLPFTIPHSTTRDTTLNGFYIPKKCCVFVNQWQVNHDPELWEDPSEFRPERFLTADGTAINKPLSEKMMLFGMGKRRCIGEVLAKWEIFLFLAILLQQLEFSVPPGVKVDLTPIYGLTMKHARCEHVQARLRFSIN

[14] = restored growth of temperature-sensitive Burl-1 yeast – whole organism, S. cerevisiae, Burl-1 ts mutant, luminescence, counter-screen for SUMOylation pathway inhibitor project, dose response (AID 463199); type: functional
[15] = NIH-3T3 fibroblast cytotoxicity, dose response, cytotoxicity control, cell-based, fluorescence, Alamar Blue, secondary assay (AID 2327); type: functional;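 note: NIH-3T3 mouse fibroblasts cultured with fluconazole at 8 µg/mL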
[16] = decrease of insulin promoter-GFP reporter – imaging, high-content screening, mouse beta cells (AID 1628); type: functional; conditions: MIN6
[17] = MIN6 cell viability loss – mouse insulinoma, cytotoxicity control, dose response (AID 2122); type: functional;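 note: confirmatory high-throughput counterscreen run to flag cytotoxic compounds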
[18] = fluconazole-exposed Candida albicans growth modulators – fluorescence, retest, confirmation (AID 2467); type: functional, cell-based
[19] = target: T4, Serine/threonine-protein phosphatase (Candida dubliniensis (strain CD36 / CBS 7987 / NCPF 3949 / NRRLY-17841) (Yeast), UniProt B9W6M3); experiment: blockers of CaCl2-induced CDRE-lacZ signaling – S. cerevisiae, luminescence, secondary, dose response (AID 2388); type: functional, cell-based;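 note: yeast reporter cells carrying a calcineurin-responsive lacZ construct stimulated with calcium chloride; luminescent beta-galactosidase reporter signal in whole cells rather than isolated phosphatase activity; potency for inhibition where a drop in reporter signal means calcineurin blockade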
T4 sequence (B9W6M3 whole entry): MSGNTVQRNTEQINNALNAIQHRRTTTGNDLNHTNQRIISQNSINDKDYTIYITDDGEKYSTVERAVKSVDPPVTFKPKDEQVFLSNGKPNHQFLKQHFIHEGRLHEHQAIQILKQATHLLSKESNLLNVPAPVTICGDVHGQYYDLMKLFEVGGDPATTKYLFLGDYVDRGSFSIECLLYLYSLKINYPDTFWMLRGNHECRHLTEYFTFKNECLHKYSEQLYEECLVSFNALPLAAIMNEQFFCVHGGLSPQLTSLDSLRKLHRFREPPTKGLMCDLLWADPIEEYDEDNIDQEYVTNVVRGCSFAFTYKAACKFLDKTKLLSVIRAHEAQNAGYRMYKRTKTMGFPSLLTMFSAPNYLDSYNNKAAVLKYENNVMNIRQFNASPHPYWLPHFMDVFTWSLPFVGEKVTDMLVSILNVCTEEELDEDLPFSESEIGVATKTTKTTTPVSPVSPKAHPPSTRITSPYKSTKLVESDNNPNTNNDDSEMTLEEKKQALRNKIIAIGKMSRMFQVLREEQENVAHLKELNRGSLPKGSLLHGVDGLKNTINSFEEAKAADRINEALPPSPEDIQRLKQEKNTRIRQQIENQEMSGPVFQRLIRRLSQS

[20] = test system: INS1; experiment: INS-1E survival protection against cytokine death – cell-based, luminescence, retest, dose response (AID 449756); type: functional; conditions: Rattus norvegicus;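 note: cell death triggered by IL-1 beta plus TNF-alpha plus IFN-gamma mixture; protective hits raise ATP signal compared with cytokine alone wells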
[21] = target: ATP-dependent molecular chaperone HSP82 (Candida albicans (strain WO-1) (Yeast), UniProt C4YTQ8); experiment: steroid-induced GRE reporter decrease in yeast – S. cerevisiae, luminescence, Hsp90 inhibitor project, dose response (AID 2400); type: functional, cell-based;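 note: beta-galactosidase luminescence from glucocorticoid response element reporter as proxy for Hsp90 function; inhibitor potency where signal loss means Hsp90 inhibition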
Chain of ATP-dependent molecular chaperone HSP82 (C4YTQ8 whole entry): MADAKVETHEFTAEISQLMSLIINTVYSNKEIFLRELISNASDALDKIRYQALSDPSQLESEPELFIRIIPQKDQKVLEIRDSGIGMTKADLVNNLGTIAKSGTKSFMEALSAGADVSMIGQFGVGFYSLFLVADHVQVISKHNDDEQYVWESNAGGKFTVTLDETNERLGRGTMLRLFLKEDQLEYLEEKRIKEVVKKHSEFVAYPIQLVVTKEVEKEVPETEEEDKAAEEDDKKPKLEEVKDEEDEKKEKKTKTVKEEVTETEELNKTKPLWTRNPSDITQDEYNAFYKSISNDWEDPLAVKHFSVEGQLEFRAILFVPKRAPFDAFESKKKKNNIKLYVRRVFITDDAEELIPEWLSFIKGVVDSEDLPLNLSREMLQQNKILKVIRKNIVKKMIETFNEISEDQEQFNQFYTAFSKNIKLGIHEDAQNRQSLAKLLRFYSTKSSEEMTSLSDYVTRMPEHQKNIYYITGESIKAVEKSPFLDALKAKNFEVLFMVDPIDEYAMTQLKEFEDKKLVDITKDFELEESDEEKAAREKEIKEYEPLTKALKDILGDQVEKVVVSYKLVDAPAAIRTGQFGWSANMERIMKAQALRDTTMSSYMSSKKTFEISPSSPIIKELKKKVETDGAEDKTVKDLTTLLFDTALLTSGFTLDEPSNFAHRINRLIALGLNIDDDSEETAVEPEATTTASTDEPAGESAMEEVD

T1 sequence (Q00975 whole entry): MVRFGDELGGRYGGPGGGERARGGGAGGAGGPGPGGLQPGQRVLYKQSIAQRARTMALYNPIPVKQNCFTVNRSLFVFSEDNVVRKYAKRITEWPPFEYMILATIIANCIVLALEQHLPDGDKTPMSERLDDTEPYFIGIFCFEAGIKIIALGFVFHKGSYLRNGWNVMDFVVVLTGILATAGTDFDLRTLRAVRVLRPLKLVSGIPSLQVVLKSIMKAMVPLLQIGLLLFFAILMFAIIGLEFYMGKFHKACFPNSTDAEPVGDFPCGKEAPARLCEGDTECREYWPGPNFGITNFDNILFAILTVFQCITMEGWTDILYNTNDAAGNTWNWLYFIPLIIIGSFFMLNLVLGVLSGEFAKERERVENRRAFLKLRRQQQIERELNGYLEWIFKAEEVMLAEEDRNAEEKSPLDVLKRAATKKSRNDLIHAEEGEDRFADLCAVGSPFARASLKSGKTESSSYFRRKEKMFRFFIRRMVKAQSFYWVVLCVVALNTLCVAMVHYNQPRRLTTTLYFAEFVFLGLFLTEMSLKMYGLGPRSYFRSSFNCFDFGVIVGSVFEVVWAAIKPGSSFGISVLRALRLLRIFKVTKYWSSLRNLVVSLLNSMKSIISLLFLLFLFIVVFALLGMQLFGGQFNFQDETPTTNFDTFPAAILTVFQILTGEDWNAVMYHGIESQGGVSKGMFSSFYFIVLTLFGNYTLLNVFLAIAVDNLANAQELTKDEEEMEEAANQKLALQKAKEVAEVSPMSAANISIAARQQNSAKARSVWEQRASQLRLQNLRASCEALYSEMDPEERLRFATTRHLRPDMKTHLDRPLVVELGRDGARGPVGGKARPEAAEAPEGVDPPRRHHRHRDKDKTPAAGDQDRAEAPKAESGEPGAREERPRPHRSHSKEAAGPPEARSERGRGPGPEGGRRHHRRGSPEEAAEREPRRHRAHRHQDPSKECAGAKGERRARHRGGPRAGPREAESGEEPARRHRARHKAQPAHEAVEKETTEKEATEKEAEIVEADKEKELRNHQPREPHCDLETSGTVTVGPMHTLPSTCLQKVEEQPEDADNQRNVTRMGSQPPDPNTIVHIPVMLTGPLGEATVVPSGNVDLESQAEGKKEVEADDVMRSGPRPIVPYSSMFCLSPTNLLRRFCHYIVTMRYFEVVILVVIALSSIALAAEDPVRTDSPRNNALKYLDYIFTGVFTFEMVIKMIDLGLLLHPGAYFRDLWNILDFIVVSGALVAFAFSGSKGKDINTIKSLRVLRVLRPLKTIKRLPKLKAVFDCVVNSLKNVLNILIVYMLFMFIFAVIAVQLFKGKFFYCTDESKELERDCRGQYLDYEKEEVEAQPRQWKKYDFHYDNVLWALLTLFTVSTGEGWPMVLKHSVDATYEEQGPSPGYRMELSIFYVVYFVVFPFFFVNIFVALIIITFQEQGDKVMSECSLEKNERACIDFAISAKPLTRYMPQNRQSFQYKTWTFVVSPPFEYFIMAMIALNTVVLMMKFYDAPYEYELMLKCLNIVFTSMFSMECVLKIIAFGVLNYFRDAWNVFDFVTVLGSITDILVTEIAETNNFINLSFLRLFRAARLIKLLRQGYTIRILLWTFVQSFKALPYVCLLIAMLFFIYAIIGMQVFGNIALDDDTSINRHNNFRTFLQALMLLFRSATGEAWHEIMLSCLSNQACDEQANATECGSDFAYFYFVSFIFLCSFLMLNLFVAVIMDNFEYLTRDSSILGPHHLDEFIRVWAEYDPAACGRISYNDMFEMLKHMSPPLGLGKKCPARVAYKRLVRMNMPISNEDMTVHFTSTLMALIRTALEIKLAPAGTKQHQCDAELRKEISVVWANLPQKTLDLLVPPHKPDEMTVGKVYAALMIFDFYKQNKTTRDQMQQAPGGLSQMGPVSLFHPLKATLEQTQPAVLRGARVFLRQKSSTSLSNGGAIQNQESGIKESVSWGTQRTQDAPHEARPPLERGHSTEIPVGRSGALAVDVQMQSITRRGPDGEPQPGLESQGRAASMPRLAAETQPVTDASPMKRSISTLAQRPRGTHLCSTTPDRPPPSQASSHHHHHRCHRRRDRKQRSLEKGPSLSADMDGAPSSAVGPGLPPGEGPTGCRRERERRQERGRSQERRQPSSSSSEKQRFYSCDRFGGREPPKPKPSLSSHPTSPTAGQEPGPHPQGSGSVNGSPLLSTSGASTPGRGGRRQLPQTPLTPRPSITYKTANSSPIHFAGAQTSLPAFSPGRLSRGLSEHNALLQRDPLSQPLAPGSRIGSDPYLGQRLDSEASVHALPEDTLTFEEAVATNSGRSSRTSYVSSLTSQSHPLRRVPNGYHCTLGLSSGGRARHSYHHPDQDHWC
T1 sequence (Q02410 whole entry): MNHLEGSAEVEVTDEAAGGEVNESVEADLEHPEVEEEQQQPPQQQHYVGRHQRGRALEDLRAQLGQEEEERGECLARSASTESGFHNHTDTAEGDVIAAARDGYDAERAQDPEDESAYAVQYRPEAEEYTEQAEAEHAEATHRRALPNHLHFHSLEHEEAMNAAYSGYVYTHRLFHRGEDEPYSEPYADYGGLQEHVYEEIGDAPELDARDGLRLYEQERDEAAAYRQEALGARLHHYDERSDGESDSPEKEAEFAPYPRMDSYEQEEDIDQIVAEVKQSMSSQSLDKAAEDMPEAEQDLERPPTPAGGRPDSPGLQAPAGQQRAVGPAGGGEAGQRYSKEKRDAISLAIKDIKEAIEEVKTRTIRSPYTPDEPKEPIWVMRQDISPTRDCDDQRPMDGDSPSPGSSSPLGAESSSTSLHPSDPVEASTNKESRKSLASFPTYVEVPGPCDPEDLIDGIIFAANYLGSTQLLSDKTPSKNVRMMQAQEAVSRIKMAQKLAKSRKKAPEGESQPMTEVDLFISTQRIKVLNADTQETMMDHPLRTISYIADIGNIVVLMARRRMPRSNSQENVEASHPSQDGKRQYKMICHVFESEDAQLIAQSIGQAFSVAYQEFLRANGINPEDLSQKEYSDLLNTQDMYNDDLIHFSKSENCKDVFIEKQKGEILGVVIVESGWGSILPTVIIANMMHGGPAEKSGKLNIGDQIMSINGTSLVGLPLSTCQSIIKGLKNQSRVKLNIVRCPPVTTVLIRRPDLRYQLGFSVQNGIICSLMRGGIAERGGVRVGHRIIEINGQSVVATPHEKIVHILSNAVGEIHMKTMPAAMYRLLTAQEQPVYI
Chain of Cytochrome P450 3A4 (P08684 whole entry): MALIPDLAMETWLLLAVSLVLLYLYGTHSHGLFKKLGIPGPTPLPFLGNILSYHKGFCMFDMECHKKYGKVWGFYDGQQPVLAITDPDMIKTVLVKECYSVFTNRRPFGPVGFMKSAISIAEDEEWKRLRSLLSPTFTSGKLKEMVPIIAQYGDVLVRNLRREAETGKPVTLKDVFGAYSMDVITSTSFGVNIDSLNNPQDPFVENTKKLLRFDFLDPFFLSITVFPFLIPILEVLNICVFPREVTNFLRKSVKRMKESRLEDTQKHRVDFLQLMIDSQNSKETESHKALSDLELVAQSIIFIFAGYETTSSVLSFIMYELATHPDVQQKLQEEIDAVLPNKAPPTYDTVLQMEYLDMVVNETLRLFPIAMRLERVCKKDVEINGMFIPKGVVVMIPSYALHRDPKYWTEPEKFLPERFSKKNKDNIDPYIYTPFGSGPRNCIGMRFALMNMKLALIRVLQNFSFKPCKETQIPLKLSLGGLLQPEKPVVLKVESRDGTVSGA
Chain of Cytochrome P450 2C19 (P33261 whole entry): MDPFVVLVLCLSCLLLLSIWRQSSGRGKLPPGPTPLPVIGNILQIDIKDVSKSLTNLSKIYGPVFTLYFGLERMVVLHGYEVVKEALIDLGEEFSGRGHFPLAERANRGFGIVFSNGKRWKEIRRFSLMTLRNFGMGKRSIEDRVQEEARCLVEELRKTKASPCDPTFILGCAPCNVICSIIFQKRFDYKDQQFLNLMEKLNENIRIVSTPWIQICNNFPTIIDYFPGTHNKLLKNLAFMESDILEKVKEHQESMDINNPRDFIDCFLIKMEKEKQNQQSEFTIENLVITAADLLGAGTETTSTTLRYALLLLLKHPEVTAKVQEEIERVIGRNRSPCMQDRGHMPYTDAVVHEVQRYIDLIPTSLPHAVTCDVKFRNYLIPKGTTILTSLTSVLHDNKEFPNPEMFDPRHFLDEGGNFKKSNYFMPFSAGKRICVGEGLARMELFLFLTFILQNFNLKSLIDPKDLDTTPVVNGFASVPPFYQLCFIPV

For `Cc1c(C(=O)NC2CCCc3ccccc32)oc2ccc(S(=O)(=O)N3CCOCC3)cc12` (stereo unspecified), the Ki [1] was 37 µM (inactive), the AC50 [2] was “inconclusive” and the AC50 [3] was “inconclusive”.
For `CCCCn1c(=O)[nH]c2nc3cc(N)ccc3nc2c1=O`, the IC50 [4] was 19.1 µM (active), the IC50 [5] was > 50 µM (inactive) and the IC50 [6] was 20.7 µM (inactive). For the same compound, the IC50 [7] was 7.87 µM (active), the AC50 [8] was 2.4 µM (active) and the AC50 [9] was 2.42 µM (active). The AC50 [10] was 3.52 µM (active).
With `CCOC(=O)N1CCN(Cc2nc3c(c(=O)[nH]c(=O)n3C)n2Cc2ccccc2C)CC1` the AC50 [11] was 20 µM (inconclusive), the AC50 [12] was 35.5 µM (inconclusive) and the AC50 [13] was “inconclusive”.
For `CCC1SC2=NC(C)=C(C(=O)OCCOC)C(c3ccc(C(=O)OC)cc3)N2C1=O` (stereo unspecified), the AC50 [14] was 50.8 µM (active).
In the case of `CCCCCCC[n+]1ccc(-c2cc[n+](CCCCCCC)cc2)cc1`, the EC50 [15] is reported as 64.9 µM (active), the IC50 [16] is reported as 2.74 µM (active) and the IC50 [17] is reported as 3.65 µM (active). For the same compound, the EC50 [18] was 0.055 µM (active), the EC50 [19] was > 180 µM (inactive) and the AC50 [20] was 0.22 µM (active). The EC50 [21] was > 160 µM (inactive).
